# Assay results: the NIST ThermoML archive (doi:10.1016/j.jct.2012.03.020)
# ± gives the expanded uncertainty stated by the source.
# Key:
# [1] = for Normal melting temperature: Crystal, visual observation; for mass density: 101.33 kPa, Liquid, Pycnometric method
# [2] = refractive index (Na D-line) (dimensionless); conditions: 101.33 kPa, Liquid, Standard Abbe refractometry
Compound,Normal melting temperature [1] [°C],refractive index ([2]; 298.15 K),refractive index ([2]; 303.15 K),refractive index ([2]; 308.15 K),refractive index ([2]; 313.15 K),mass density ([1]; 298.15 K) [kg/m3],mass density ([1]; 303.15 K) [kg/m3],mass density ([1]; 308.15 K) [kg/m3],mass density ([1]; 313.15 K) [kg/m3]
O=C(c1ccc([N+](=O)[O-])cc1)N(O)c1ccccc1 [N-hydroxy-4-nitro-N-phenylbenzamide],168.00 ± 2,,,,,,,,
Cc1ccc(C(=O)N(O)c2ccccc2)cc1[N+](=O)[O-] [N-hydroxy-4-methyl-3-nitro-N-phenylbenzamide],117.00 ± 2,1.4371 ± 0.0004,1.4336 ± 0.0004,1.4302 ± 0.0004,1.4286 ± 0.0004,1437 ± 0.9,1433.5 ± 0.9,1430.2 ± 0.9,1428.5 ± 0.9
O=C(c1ccccc1)N(O)c1ccccc1 [N-phenylbenzohydroxamic acid],121.00 ± 2,1.4269 ± 0.0004,1.4257 ± 0.0004,1.4241 ± 0.0004,1.4221 ± 0.0004,945.8 ± 0.6,940.4 ± 0.6,936.3 ± 0.6,931.2 ± 0.6
CN(C)C=O [dimethylformamide],,1.427 ± 0.0004,1.4253 ± 0.0004,1.423 ± 0.0004,1.421 ± 0.0004,945.2 ± 0.9,939.7 ± 0.8,935.6 ± 0.8,930.2 ± 0.9
